Data on 30 compounds can be found in US7964594B1, “Amino oxazine derivatives” (Hoffmann-La Roche Inc., priority 2009, dated 2011).

The target in the assay is T1, BACE2 (Rattus norvegicus, UniProt Q6IE75).
T1 construct: endogenous cellular BACE2 in the Ins1e rat cell line; endogenous in cells; host or cells: INS-TMEM27 (INS1e-derived rat insulinoma cell line with doxycycline-inducible full-length hTMEM27)
T1 sequence (Q6IE75 63-514): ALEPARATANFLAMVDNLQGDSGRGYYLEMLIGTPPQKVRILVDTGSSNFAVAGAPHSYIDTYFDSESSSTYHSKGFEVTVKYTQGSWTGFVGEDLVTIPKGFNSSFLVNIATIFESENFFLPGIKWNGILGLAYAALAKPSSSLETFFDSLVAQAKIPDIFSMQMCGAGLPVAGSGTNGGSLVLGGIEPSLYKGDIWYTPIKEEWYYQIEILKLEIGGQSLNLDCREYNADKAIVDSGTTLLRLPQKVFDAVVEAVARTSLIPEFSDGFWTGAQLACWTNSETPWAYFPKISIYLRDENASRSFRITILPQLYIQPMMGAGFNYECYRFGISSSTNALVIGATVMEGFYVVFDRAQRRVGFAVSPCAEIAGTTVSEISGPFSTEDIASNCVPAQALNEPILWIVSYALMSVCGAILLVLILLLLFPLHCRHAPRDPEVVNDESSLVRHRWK
The experiment in a line: Assay for BACE inhibition by measuring cellular TMEM27 cleavage (INS-TMEM27 cells, ELISA of shed TMEM27). The assay is classed as cell-based. The following applies: inhibition of human TMEM27 cleavage by endogenous cellular BACE2 in Ins1e rat cell line; ELISA of culture medium. An excerpt: Assay for BACE Inhibition by Measuring Cellular TMEM27 Cleavage
The assay uses the principle of inhibition of human TMEM27 cleavage by endogenous cellular BACE2 in the Ins1e rat cell line and shedding from the cell surface into the culture medium, followed by detection in an ELISA assay. Inhibition of BACE2 prevents the cleavage and shedding in a dose-dependent manner.
The stable cell line “INS-TMEM27” represents an INS1e-derived cell line with inducible expression (using the TetOn system) of full-length hTMEM27 in a doxycycline-dependent manner. The cells were cultured throughout the experiment in RPMI1640+Glutamax (Invitrogen) Penicillin/Streptomycin, 10% Fetal bovine serum, […], […], 100 micrograms/ml G418 and 100 microgram/ml hygromycin and were grown in adherent culture at 37° C. in a standard CO2 cell culture incubator.
INS-TMEM27 cells were seeded in 96-well plates. After 2 days in culture, BACE2 inhibitor was added in a range of concentrations as required by the assay and after a further two hours, doxycycline was added to a final concentration of 500 ng/ml. The cells were incubated for a further 46 hours and the supernatant harvested for detection of shed TMEM27.
An ELISA assay (using a pair of mouse anti-human-TMEM27 antibodies, raised against the extracellular domain of TMEM27) was used for detection of TMEM27 in the culture medium. An IC50 for BACE2 inhibition was calculated using the ELISA readout for each inhibitor concentration with standard curve-fitting software XLfit (IDBS) for the Excel spreadsheet program.

What is called IC50 is the midpoint of a concentration-inhibition curve. Lower therefore signals greater potency in that assay. `COc1ccc(C(=O)Nc2ccc(F)c([C@]3(C)CCOC(N)=N3)c2)nc1` [Example 30, 5-Methoxy-pyridine-2-carboxylic acid [3-((S)-2-amino-4-methyl-5,6-dihydro-4H-[1,3]oxazin-4-yl)-4-fluoro-phenyl]-amide] registered an IC50 of 12 nM. In other words, the double-digit nanomolar range.
The result for `C[C@]1(c2cc(NC(=O)c3ncc(Cl)cn3)ccc2F)N=C(N)OCC12CC2` [Example 44, 5-Chloro-pyrimidine-2-carboxylic acid [3-((S)-6-amino-8-methyl-5-oxa-7-aza-spiro[2.5]oct-6-en-8-yl)-4-fluoro-phenyl]-amide] reads 7.1 nM.
For the compound `C[C@]1(c2cc(NC(=O)c3ncc(F)cc3Cl)ccc2F)N=C(N)OCC12CC2` [Example 52, (S)—N-(3-(6-Amino-8-methyl-5-oxa-7-azaspiro[2.5]oct-6-en-8-yl)-4-fluorophenyl)-3-chloro-5-fluoropicolinamide], the IC50 came out at 16 nM.
In the case of `CC[C@@]1(c2cc(NC(=O)c3ccc(Cl)s3)ccc2F)CCOC(N)=N1` [Example 21], the IC50 was 240 nM.
The compound `CC[C@@]1(c2cc(NC(=O)c3ccccn3)ccc2F)CCOC(N)=N1` [Example 18, Pyridine-2-carboxylic acid [3-((S)-2-amino-4-ethyl-5,6-dihydro-4H-[1,3]oxazin-4-yl)-4-fluoro-phenyl]-amide] showed an IC50 of 35 nM.
Next, `C[C@@]1(c2cc(NC(=O)C(F)C(F)(F)F)ccc2F)CCOC(N)=N1` (stereo partly drawn) [Example 45, N-[3-((S)-2-Amino-4-methyl-5,6-dihydro-4H-[1,3]oxazin-4-yl)-4-fluoro-phenyl]-2,3,3,3-tetrafluoro-propionamide]: 400 nM; `NC1=N[C@@]2(c3cc(NC(=O)c4ccc(Cl)cn4)ccc3F)COC[C@H]2CO1` [Example 65, 5-Chloro-pyridine-2-carboxylic acid [3-((4aS,7aS)-2-amino-4a,5-dihydro-4H-furo[3,4-d][1,3]oxazin-7a-yl)-4-fluoro-phenyl]-amide]: 60 nM; `C[C@]1(c2cc(NC(=O)c3ccc(F)cn3)ccc2F)N=C(N)OCC12CC2` [Example 40, 5-Fluoro-pyridine-2-carboxylic acid [3-((S)-6-amino-8-methyl-5-oxa-7-aza-spiro[2.5]oct-6-en-8-yl)-4-fluoro-phenyl]-amide]: 39 nM.
The result for `C[C@@]1(c2cc(NC(=O)c3cnc(Cl)cn3)ccc2F)CCOC(N)=N1` [Example 14] reads 190 nM; that for `C[C@]1(c2cc(NC(=O)c3ncccc3Cl)ccc2F)N=C(N)OCC12CC2` [Example 48, (S)—N-(3-(6-Amino-8-methyl-5-oxa-7-azaspiro[2.5]oct-6-en-8-yl)-4-fluorophenyl)-3-chloropicolinamide], 36 nM; that for `C[C@@]1(c2cc(NC(=O)c3ccc(Cl)s3)ccc2F)CCOC(N)=N1` [Example 10, 5-Chloro-thiophene-2-carboxylic acid [3-((S)-2-amino-4-methyl-5,6-dihydro-4H-[1,3]oxazin-4-yl)-4-fluoro-phenyl]-amide], 915 nM.
For `C[C@]1(c2cc(NC(=O)c3ccc(C#N)cn3)ccc2F)N=C(N)OCC12CC2` [Example 41, 5-Cyano-pyridine-2-carboxylic acid [3-((S)-6-amino-8-methyl-5-oxa-7-aza-spiro[2.5]oct-6-en-8-yl)-4-fluoro-phenyl]-amide], half-maximal inhibition (IC50) required 52 nM.
The result for `C[C@@]1(c2cc(NC(=O)c3ccc(C(F)(F)F)cn3)ccc2F)CCOC(N)=N1` [Example 5, 5-Trifluoromethyl-pyridine-2-carboxylic acid [3-((S)-2-amino-4-methyl-5,6-dihydro-4H-[1,3]oxazin-4-yl)-4-fluoro-phenyl]-amide] reads 89 nM; that for `Cc1ccc(C(=O)Nc2ccc(F)c([C@]3(C)CCOC(N)=N3)c2)s1` [Example 17, 5-Methyl-thiophene-2-carboxylic acid [3-((S)-2-amino-4-methyl-5,6-dihydro-4H-[1,3]oxazin-4-yl)-4-fluoro-phenyl]-amide], 11 nM.
Next, `C[C@@]1(c2cc(NC(=O)c3ncc(C(F)(F)F)cc3Cl)ccc2F)CCOC(N)=N1` [Example 31, 3-Chloro-5-trifluoromethyl-pyridine-2-carboxylic acid [3-((S)-2-amino-4-methyl-5,6-dihydro-4H-[1,3]oxazin-4-yl)-4-fluoro-phenyl]-amide]: 11 nM; `C[C@]1(c2cc(NC(=O)c3ccc(Cl)cn3)ccc2F)N=C(N)OCC12CC2` [Example 36, 5-Chloro-pyridine-2-carboxylic acid [3-((S)-6-amino-8-methyl-5-oxa-7-aza-spiro[2.5]oct-6-en-8-yl)-4-fluoro-phenyl]-amide]: 16 nM; `C[C@@]1(c2cc(NC(=O)c3ncc(Cl)cc3Cl)ccc2F)CCOC(N)=N1` [Example 1, 3,5-Dichloro-pyridine-2-carboxylic acid [3-((S)-2-amino-4-methyl-5,6-dihydro-4H-[1,3]oxazin-4-yl)-4-fluoro-phenyl]-amide]: 4 nM.
`C[C@@]1(c2cc(NC(=O)c3cc(Cl)ccn3)ccc2F)CCOC(N)=N1` [Example 9] had an IC50 of 143 nM.
As to `C[C@]1(c2cc(NC(=O)c3ncc(Cl)cc3Cl)ccc2F)N=C(N)OCC12CC2` [Example 53, (S)—N-(3-(6-Amino-8-methyl-5-oxa-7-azaspiro[2.5]oct-6-en-8-yl)-4-fluorophenyl)-3,5-dichloropicolinamide], the IC50 amounted to 6 nM.
The result for `Cc1c(C(=O)Nc2ccc(F)c([C@@]3(C)N=C(N)OCC34CC4)c2)noc1Cl` [Example 57, (S)—N-(3-(6-Amino-8-methyl-5-oxa-7-azaspiro[2.5]oct-6-en-8-yl)-4-fluorophenyl)-5-chloro-4-methylisoxazole-3-carboxamide] reads 6410 nM.
The result for `Cc1cc(Cl)cnc1C(=O)Nc1ccc(F)c([C@]2(C)CCOC(N)=N2)c1` [Example 26, 5-Chloro-3-methyl-pyridine-2-carboxylic acid [3-((S)-2-amino-4-methyl-5,6-dihydro-4H-[1,3]oxazin-4-yl)-4-fluoro-phenyl]-amide] reads 1 nM.
Next, `CC[C@@]1(c2cc(NC(=O)c3ccc(C)s3)ccc2F)CCOC(N)=N1` [Example 20]: 48 nM; `Cc1cc(Cl)cnc1C(=O)Nc1ccc(F)c([C@@]2(C)N=C(N)OCC23CC3)c1` [Example 38, 5-Chloro-3-methyl-pyridine-2-carboxylic acid [3-((S)-6-amino-8-methyl-5-oxa-7-aza-Spiro[2.5]oct-6-en-8-yl)-4-fluoro-phenyl]amide]: 5.1 nM.
The compound `C[C@]1(c2cc(NC(=O)c3ncc(C(F)(F)F)cc3Cl)ccc2F)N=C(N)OCC12CC2` [Example 50, (S)—N-(3-(6-Amino-8-methyl-5-oxa-7-azaspiro[2.5]oct-6-en-8-yl)-4-fluorophenyl)-3-chloro-5-(trifluoromethyl)picolinamide] returned an IC50 of 190 nM.
The result for `Cn1ccc(C(=O)Nc2ccc(F)c([C@]3(C)CCOC(N)=N3)c2)n1` [Example 29] reads 3 nM; that for `Cn1cc(Cl)c(C(=O)Nc2ccc(F)c([C@@]3(C)N=C(N)OCC34CC4)c2)n1` [Example 56, (S)—N-(3-(6-Amino-8-methyl-5-oxa-7-azaspiro[2.5]oct-6-en-8-yl)-4-fluorophenyl)-4-chloro-1-methyl-1H-pyrazole-3-carboxamide], 6 nM.
With `CC[C@@]1(c2cc(NC(=O)c3ncc(Cl)cc3C)ccc2F)CCOC(N)=N1` [Example 23], the IC50 was 9 nM.
As to `C[C@@]1(c2cc(NC(=O)c3ncccc3OCC(F)(F)F)ccc2F)CCOC(N)=N1` [Example 60, (S)—N-(3-(2-Amino-4-methyl-5,6-dihydro-4H-1,3-oxazin-4-yl)-4-fluorophenyl)-3-(2,2,2-trifluoroethoxy)picolinamide], the IC50 is 143 nM.
As for `C[C@@]1(c2cc(NC(=O)c3cc4ccccc4s3)ccc2F)CCOC(N)=N1` [Example 13, Benzo[b]thiophene-2-carboxylic acid [3-((S)-2-amino-4-methyl-5,6-dihydro-4H-[1,3]oxazin-4-yl)-4-fluoro-phenyl]-amide], half-maximal inhibition (IC50) was put at 52 nM. This IC50 is about 2.8-fold lower than that of the compound before.
The result for `C[C@]1(c2cc(NC(=O)c3c(F)cccc3F)ccc2F)N=C(N)OCC12CC2` [Example 47, (S)—N-(3-(6-Amino-8-methyl-5-oxa-7-azaspiro[2.5]oct-6-en-8-yl)-4-fluorophenyl)-2,6-difluorobenzamide] reads 620 nM.
